Test results published in ChEMBL document CHEMBL1125996, “Avermectin analogs with a spacer between the aglycone and the disaccharide” (1991).

Experiments:
Artemia salina [1] = test: Compound was tested for its inhibitory activity using brine shrimp (Artemia salina) immobilization assay; assay type: functional
Artemia salina [2] = test: Compound was tested for its inhibitory activity using brine shrimp (Artemia salina) immobilization assay; highest level tested, showed <100% activity; assay type: functional

SMILES	IC100 (Artemia salina [1]) [ng/mL]	IC100 (Artemia salina [2]) [ng/mL]
CC[C@H](C)[C@H]1O[C@]2(CC[C@@H]1C)C[C@@H]1C[C@@H](C/C=C(\C)[C@@H](OCOCCO[C@@H]3C[C@H](OC)[C@@H](O[C@H]4C[C@H](OC)[C@@H](O)[C@H](C)O4)[C@H](C)O3)[C@@H](C)/C=C/C=C3\CO[C@@H]4[C@H](O)C(C)=C[C@@H](C(=O)O1)[C@]34O)O2	27800	–
CC[C@H](C)[C@H]1O[C@]2(CC[C@@H]1C)C[C@@H]1C[C@@H](C/C=C(\C)[C@@H](OC(=O)OCCO[C@@H]3C[C@H](OC)[C@@H](O[C@H]4C[C@H](OC)[C@@H](O)[C@H](C)O4)[C@H](C)O3)[C@@H](C)/C=C/C=C3\CO[C@@H]4[C@H](O)C(C)=C[C@@H](C(=O)O1)[C@]34O)O2	41650	–
CC[C@H](C)[C@H]1O[C@]2(CC[C@@H]1C)C[C@@H]1C[C@@H](C/C=C(\C)[C@@H](OCCO[C@H]3C[C@H](OC)[C@@H](O[C@H]4C[C@H](OC)[C@@H](O)[C@H](C)O4)[C@H](C)O3)[C@@H](C)/C=C/C=C3\CO[C@@H]4[C@H](O)C(C)=C[C@@H](C(=O)O1)[C@]34O)O2	1730	–
CC[C@H](C)[C@H]1O[C@]2(CC[C@@H]1C)C[C@@H]1C[C@@H](C/C=C(\C)[C@@H](OCOCCO[C@H]3C[C@H](OC)[C@@H](O[C@H]4C[C@H](OC)[C@@H](O)[C@H](C)O4)[C@H](C)O3)[C@@H](C)/C=C/C=C3\CO[C@@H]4[C@H](O)C(C)=C[C@@H](C(=O)O1)[C@]34O)O2	27800	–
CC[C@H](C)[C@H]1O[C@]2(CC[C@@H]1C)C[C@@H]1C[C@@H](C/C=C(\C)[C@@H](OCCO[C@@H]3C[C@H](OC)[C@@H](O[C@H]4C[C@H](OC)[C@@H](O)[C@H](C)O4)[C@H](C)O3)[C@@H](C)/C=C/C=C3\CO[C@@H]4[C@H](O)C(C)=C[C@@H](C(=O)O1)[C@]34O)O2	1730	–
CC[C@H](C)[C@H]1O[C@]2(CC[C@@H]1C)C[C@@H]1C[C@@H](C/C=C(\C)[C@@H](OC(=O)OCCO[C@H]3C[C@H](OC)[C@@H](O[C@H]4C[C@H](OC)[C@@H](O)[C@H](C)O4)[C@H](C)O3)[C@@H](C)/C=C/C=C3\CO[C@@H]4[C@H](O)C(C)=C[C@@H](C(=O)O1)[C@]34O)O2	–	>55500
CC[C@H](C)[C@H]1O[C@]2(C=C[C@@H]1C)C[C@@H]1C[C@@H](C/C=C(\C)[C@@H](O[C@H]3C[C@H](OC)[C@@H](O[C@H]4C[C@H](OC)[C@@H](O)[C@H](C)O4)[C@H](C)O3)[C@@H](C)/C=C/C=C3\CO[C@@H]4[C@H](O)C(C)=C[C@@H](C(=O)O1)[C@]34O)O2 [ABAMECTIN COMPONENT B1A]	430	–
